Test results taken from patent US20250144067A1, “PERSONALIZED STARVATION THERAPY FOR CANCER” (Faeth Therapeutics, Inc., priority 2021, published 2025).
Where a name gives a salt, the structure may show the parent alone.

How the values were obtained:
[1] = system: NCI-H292 lung cancer cells; assay: FDA drug screening, complete media vs cholesterol-free media without statin (TABLE 1); type: cell-based, human
[2] = system: NCI-H292 lung cancer cells; assay: FDA drug screening, complete media vs cholesterol-free media with simvastatin (TABLE 2); type: cell-based, human; conditions: for Cholesterol-free media + simvastatin (0.04 μM) / Complete Media: NCI-H292 cells
[3] = Complete minus Cholesterol-free, >0 enhanced anti-cancer activity, about 0 neutral, <0 antagonist
[4] = NCI-H292 cells, cholesterol-free media without statin
[5] = cholesterol-free media with simvastatin 0.04 μM, cell growth value in FDA drug screen
[6] = complete media, cell growth value in FDA drug screen
[7] = complete media minus cholesterol-free media + simvastatin, >0 enhanced anti-cancer activity, about 0 neutral, <0 antagonist
[8] = Complete minus Cholesterol-free, greater than 0 enhanced anti-cancer activity, about 0 neutral, below 0 antagonists
[9] = NCI-H292 cells in cholesterol-free media without statin
[10] = NCI-H292 cells in complete media
[11] = FDA drug library screen, cholesterol-free media with simvastatin 0.04 μM
[12] = FDA drug library screen, complete media
[13] = complete media vs cholesterol-free media + simvastatin (0.04 μM), >0 enhanced anti-cancer activity, about 0 neutral, <0 antagonist
[14] = complete vs cholesterol-free media, greater than 0 enhanced anti-cancer activity, about 0 neutral, below 0 antagonists
[15] = FDA library drug in cholesterol-free media with simvastatin 0.04 μM
[16] = FDA library drug in complete media
[17] = Complete minus Cholesterol-free, […]
[18] = NCI-H292 cells, cholesterol-free media without statin, FDA drug library screen
[19] = NCI-H292 cells, complete media, FDA drug library screen
[20] = cholesterol-free media with simvastatin 0.04 μM, FDA drug library screen (TABLE 2)
[21] = complete media, FDA drug library screen (TABLE 2)
[22] = complete media minus cholesterol-free media + simvastatin (0.04 μM), >0 enhanced anti-cancer activity, about 0 neutral, <0 antagonist

Compound `COC(=O)N(C)c1c(N)nc(-c2nn(Cc3ccccc3F)c3ncccc23)nc1N` [Riociguat] has a Difference [1, 3] of −0.22, a Cholesterol-free [1, 4] of 0.9238 and a Complete ([1]; NCI-H292 cells, complete media) of 0.7003. The “Cholesterol-free media + simvastatin (0.04 μM)” value [2, 5] was 1.101, the “Complete Media” value [2, 6] was 1.185 and the Difference [2, 7] was 0.08.

`CCCCC(CC)COC(=O)C(C#N)=C(c1ccccc1)c1ccccc1` (centres unmarked) [Octocrylene] gave a Difference [1, 8] of −0.58, a Cholesterol-free [1, 9] of 1.541 and a Complete [1, 10] of 0.9621. The “Cholesterol-free media + simvastatin (0.04 μM)” value [2, 11] was 1.183, the “Complete Media” value [2, 12] was 1.029 and the Difference [2, 13] was −0.15.

`CCCCOc1ccc(C(=O)CCN2CCCCC2)cc1` [Dyclonine (hydrochloride)] gave a Cholesterol-free [1, 4] of 1.119, a Complete ([1]; NCI-H292 cells, complete media) of 0.7824 and a Difference [1, 14] of −0.34. The “Cholesterol-free media + simvastatin (0.04 μM)” value [2, 5] was 0.8623, the “Complete Media” value [2, 6] was 0.9661 and the Difference [2, 7] was 0.10.

`CC(C)(C)CC(=O)OCC(=O)[C@@]12OC(C)(C)O[C@@H]1C[C@H]1[C@@H]3CCC4=CC(=O)C=C[C@]4(C)[C@@]3(F)[C@@H](O)C[C@@]12C` [Triamcinolone hexacetonide] gave a Difference [1, 3] of −0.20, a Cholesterol-free [1, 4] of 0.7329 and a Complete ([1]; NCI-H292 cells, complete media) of 0.5285. The “Cholesterol-free media + simvastatin (0.04 μM)” value [2, 15] was 1.053, the “Complete Media” value [2, 16] was 0.6525 and the Difference [2, 13] was −0.40.

Compound `O=S(=O)(O)c1ccc2[nH]c(-c3ccccc3)nc2c1` [Ensulizole] has a Difference [1, 17] of 0.07, a Cholesterol-free [1, 18] of 0.8614 and a Complete [1, 19] of 0.9314. The “Cholesterol-free media + simvastatin (0.04 μM)” value [2, 20] was 0.9021, the “Complete Media” value [2, 21] was 0.8833 and the Difference ([2]; complete media minus cholesterol-free media + simvastatin (0.04 μM), […]) was −0.02.

With `N[C@@H](Cc1c[nH]cn1)C(=O)O` [L-Histidine] the Difference [1, 8] was −0.88, the Cholesterol-free [1, 9] was 2.131 and the Complete [1, 10] was 1.254. The “Cholesterol-free media + simvastatin (0.04 μM)” value [2, 5] was 1.86, the “Complete Media” value [2, 6] was 1.878 and the Difference [2, 7] was 0.02.

Emamectin (Benzoate) showed a Difference [1, 17] of 0.02, a Cholesterol-free [1, 18] of 0.001259 and a Complete [1, 19] of 0.01673. The “Cholesterol-free media + simvastatin (0.04 μM)” value [2, 11] was 0.006354, the “Complete Media” value [2, 12] was 0.4189 and the Difference ([2]; complete media minus cholesterol-free media + simvastatin, […]) was 0.41.

Rupatadine (Fumarate) was tested, and the Difference [1, 3] was −0.23, the Cholesterol-free [1, 4] was 1.308 and the “Cholesterol-free media + simvastatin (0.04 μM)” value [2, 11] was 0.9792. For the same compound, the “Complete Media” value [2, 12] was 1.536 and the Difference [2, 7] was 0.56.

For `CC(=O)OCC(=O)[C@@]12N=C(C)O[C@@H]1C[C@H]1[C@@H]3CCC4=CC(=O)C=C[C@]4(C)[C@H]3[C@@H](O)C[C@@]12C` [Deflazacort], the Cholesterol-free [1, 18] was 0.629, the Complete [1, 19] was 0.7651 and the Difference ([1]; complete vs cholesterol-free media, >0 enhanced anti-cancer activity, about 0 neutral, <0 antagonist) was 0.14. The “Cholesterol-free media + simvastatin (0.04 μM)” value [2, 20] was 0.6257, the “Complete Media” value [2, 21] was 0.5899 and the Difference [2, 22] was −0.04.

Work on `Cn1cnc2c(F)c(Nc3ccc(Br)cc3F)c(C(=O)NOCCO)cc21` [Binimetinib] yielded a Difference [1, 3] of 0.01, a Cholesterol-free [1, 18] of 0.1731 and a Complete [1, 19] of 0.1825. The “Cholesterol-free media + simvastatin (0.04 μM)” value [2, 11] was 0.4887, the “Complete Media” value [2, 12] was 0.381 and the Difference [2, 13] was −0.11.

In the case of `CN(C)CCOC(C)(c1ccccc1)c1ccc(Cl)cc1` (centres unmarked) [Chlorphenoxamine], the Cholesterol-free [1, 4] is reported as 1.303, the Complete ([1]; NCI-H292 cells, complete media) is reported as 0.9903 and the Difference [1, 14] is reported as −0.31. For the same compound, the “Cholesterol-free media + simvastatin (0.04 μM)” value [2, 15] was 1.703, the “Complete Media” value [2, 16] was 1.16 and the Difference [2, 13] was −0.54.

In the case of `Nc1ccc(O)c(C(=O)O)c1` [5-Aminosalicylic Acid], the Cholesterol-free [1, 4] is reported as 1.21, the Complete ([1]; NCI-H292 cells, complete media) is reported as 0.8775 and the Difference [1, 14] is reported as −0.33. For the same compound, the “Cholesterol-free media + simvastatin (0.04 μM)” value ([2]; drug in cholesterol-free media with simvastatin 0.04 μM) was 1.224, the “Complete Media” value ([2]; drug in complete media) was 1.016 and the Difference [2, 13] was −0.21.

For `Cc1cccc(N2CC(CO)OC2=O)c1` (centres unmarked) [Toloxatone], the Difference [1, 8] was −0.48, the Cholesterol-free [1, 9] was 1.574 and the Complete [1, 10] was 1.099. For the same compound, the “Cholesterol-free media + simvastatin (0.04 μM)” value [2, 20] was 1.023, the “Complete Media” value [2, 21] was 1.032 and the Difference [2, 22] was 0.01.

`CN1CCC(=C2c3ccccc3CCc3sccc32)CC1` [Pizotifen] gave a Cholesterol-free [1, 4] of 1.127, a Complete ([1]; NCI-H292 cells, complete media) of 0.7811 and a Difference [1, 14] of −0.35. For the same compound, the “Cholesterol-free media + simvastatin (0.04 μM)” value [2, 11] was 0.849, the “Complete Media” value [2, 12] was 1.216 and the Difference [2, 7] was 0.37.

Compound `CCCCS(=O)(=O)N[C@@H](Cc1ccc(OCCCCC2CCNCC2)cc1)C(=O)O` [Tirofiban (hydrochloride monohydrate)] has a Difference [1, 8] of −0.96, a Cholesterol-free [1, 9] of 1.842 and a Complete [1, 10] of 0.8788. For the same compound, the “Cholesterol-free media + simvastatin (0.04 μM)” value [2, 11] was 1.824, the “Complete Media” value [2, 12] was 1.693 and the Difference [2, 13] was −0.13.
